# Experimental data taken from patent US20100298141A1, “SUBSTITUTED PYRIDINE N-OXIDE HERBICIDES” (E. I. DU PONT DE NEMOURS AND COMPANY, priority 2007, published 2010).
# Legend:
# barnyardgrass = experiment: Test A pre-/postemergence greenhouse test; format: in vivo, Echinochloa crus-galli; conditions: for Barnyardgrass plant response rating: 0 to 100 scale
# How it was run: (§1)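 Pots of loam–sand soil sown with the test species are sprayed preemergence on the soil surface; emerged seedlings (1–2 leaves, 2–10 cm) are sprayed postemergence at the same time. The vehicle is a non-phytotoxic solvent mixture with surfactant. Injury is scored visually after ~10 d in greenhouse.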
# morningglory = experiment: Test A pre-/postemergence greenhouse test; format: in vivo, Ipomoea spp.; conditions: for Morningglory plant response rating: 0 to 100 scale
# How it was run: as §1
# blackgrass = experiment: Test C pre-/postemergence test; format: in vivo, Alopecurus myosuroides
# How it was run: (§2)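 Compounds in a non-phytotoxic solvent with surfactant applied preemergence to seeded pots and, at the same time, postemergence to plants 2–18 cm tall (1- to 4-leaf stage). Paddy tests: pots flooded to 3 cm, compound applied into the water, depth held throughout.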
# green foxtail = experiment: Test C pre-/postemergence test; format: in vivo, Setaria viridis; conditions: Preemergence
# How it was run: as §2
# Italian ryegrass = experiment: Test C pre-/postemergence test; format: in vivo, Lolium multiflorum; conditions: Preemergence
# How it was run: as §2
# wheat = experiment: Test C pre-/postemergence test; format: in vivo, Triticum aestivum; conditions: Preemergence
# How it was run: as §2
# cocklebur = experiment: Test C pre-/postemergence test; format: in vivo, Xanthium strumarium
# How it was run: as §2
# corn = experiment: Test C pre-/postemergence test; format: in vivo, Zea mays
# How it was run: as §2
# crabgrass = experiment: Test C pre-/postemergence test; format: in vivo, Digitaria sanguinalis; conditions: Preemergence
# How it was run: as §2
# woolly cupgrass = experiment: Test C pre-/postemergence test; format: in vivo, Eriochloa villosa; conditions: Preemergence
# How it was run: as §2
# kochia = experiment: Test C pre-/postemergence test; format: in vivo, Kochia scoparia; conditions: Preemergence
# From the text: (§3) Seeds of plant species selected from blackgrass (Alopecurus myosuroides), downy brome (Bromus tectorum), green foxtail (Setaria viridis), Italian ryegrass (Lolium multiflorum), wheat (Triticum aestivum), wild oat (Avena fatua), catchweed bedstraw (Galium aparine), Russian thistle (Salsola kali), […] (Cynodon dactylon), Surinam grass (Brachiaria decumbens), cocklebur (Xanthium strumarium), corn (Zea mays), crabgrass (Digitaria sanguinalis), woolly cupgrass (Eriochloa villosa), giant foxtail (Setaria faberii), Goosegrass (Eleusin indica), johnsongrass (Sorghum halepense), kochia (Kochia scoparia), lambsquarters (Chenopodium album), morningglory (Ipomoea coccinea), eastern black nightshade (Solanum ptycanthum), yellow nutsedge (Cyperus esculentus), pigweed (Amaranthus retroflexus), common ragweed (Ambrosia elation), soybean (Glycine max), common (oilseed) sunflower (Helianthus annuus), and velvetleaf (Abutilon theophrasti) were planted and treated preemergence with test chemicals formulated in a non-phytotoxic solvent mixture which included a surfactant. At the same time, plants selected from these crop and weed species and also winter barley (Hordeum vulgare), canarygrass (Phalaris minor), and chickweed (Stellaria media) were treated with postemergence applications of some of the test chemicals formulated in the same manner. Plants ranged in height from 2 to 18 cm (1- to 4-leaf stage) for postemergence treatments. […] At time of treatment, test pots were flooded to 3 cm above the soil surface, treated by application of test compounds directly to the paddy water, and then maintained at that water depth for the duration of the test. […] A dash (-) response means no test result.
# yellow nutsedge = experiment: Test C pre-/postemergence test; format: in vivo, Cyperus esculentus; conditions: Preemergence
# How it was run: as §2
# pigweed = experiment: Test C pre-/postemergence test; format: in vivo, Amaranthus retroflexus; conditions: Preemergence
# How it was run: as §2
# soybean = experiment: Test C pre-/postemergence test; format: in vivo, Glycine max; conditions: Preemergence
# How it was run: as §2
# [1] = system: common (oilseed) sunflower; experiment: Test C pre-/postemergence test; format: in vivo, Helianthus annuus; conditions: Preemergence
# From the text: as §3
# umbrella sedge = experiment: Test C flooded paddy test; format: in vivo, Cyperus difformis; conditions: Flood
# How it was run: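 Ratings were visual and made relative to untreated controls after 13 to 15 greenhouse days.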
# [2] = Postemergence, 125 g ai/ha, 0 is no effect, 100 is complete control
# [3] = Postemergence, 500 g ai/ha, 0 is no effect, 100 is complete control
# [4] = Preemergence, 125 g ai/ha, 0 no effect, 100 complete control
# [5] = Preemergence, 500 g ai/ha, 0 to 100 scale where 0 is no effect and 100 is complete control
# [6] = 62 g ai/ha, Preemergence, scale 0 to 100
# [7] = Preemergence, 31 g ai/ha, scale 0 to 100 (0 no effect, 100 complete control)
# [8] = preemergence, 125 g ai/ha, scale 0 (no effect) to 100 (complete control)
# [9] = 31 g ai/ha, scale 0 to 100 (0 no effect, 100 complete control)
smiles,measurement,setting,value
Cn1nc(C(F)(F)F)c(C[S+]([O-])c2cc(C(F)(F)F)cc[n+]2[O-])c1Cl (racemic) [Compound 34],Barnyardgrass plant response rating,barnyardgrass; [2],40
same,Barnyardgrass plant response rating,barnyardgrass; [3],60
same,Barnyardgrass plant response rating,barnyardgrass; [4],80
same,"Plant response rating, Barnyardgrass",barnyardgrass; [5],100
same,Morningglory plant response rating,morningglory; [2],0
same,Morningglory plant response rating,morningglory; [3],30
same,Morningglory plant response rating,morningglory; [4],50
same,"Plant response rating, Morningglory",morningglory; [5],80
same,Blackgrass plant response rating,blackgrass; [6],30
same,"Plant response rating, Blackgrass",blackgrass; [7],30
same,"Plant response rating (0 to 100), Blackgrass","blackgrass; Preemergence, 250 g ai/ha",65
same,Blackgrass plant response rating,blackgrass; [8],50
same,"Foxtail, Green plant response rating","green foxtail; 62 g ai/ha, scale 0 to 100",50
same,"Plant response rating, Foxtail, Green",green foxtail; [9],10
same,"Plant response rating (0 to 100), Foxtail, Green",green foxtail; 250 g ai/ha,100
same,"Ryegrass, Italian plant response rating","Italian ryegrass; 62 g ai/ha, scale 0 to 100",0
same,"Plant response rating, Ryegrass, Italian",Italian ryegrass; [9],0
same,Wheat plant response rating,"wheat; 62 g ai/ha, scale 0 to 100",10
same,"Plant response rating, Wheat",wheat; [9],0
same,Cocklebur plant response rating,cocklebur; [6],0
same,"Plant response rating, Cocklebur",cocklebur; [7],0
same,"Plant response rating (0 to 100), Cocklebur","cocklebur; Preemergence, 250 g ai/ha",30
same,Cocklebur plant response rating,cocklebur; [8],0
same,Corn plant response rating,corn; [6],0
same,"Plant response rating, Corn",corn; [7],0
same,"Plant response rating (0 to 100), Corn","corn; Preemergence, 250 g ai/ha",20
same,Corn plant response rating,corn; [8],5
same,"Crabgrass, Large plant response rating","crabgrass; 62 g ai/ha, scale 0 to 100",100
same,"Plant response rating, Crabgrass, Large",crabgrass; [9],98
same,"Plant response rating (0 to 100), Crabgrass, Large",crabgrass; 250 g ai/ha,100
same,"Cupgrass, Woolly plant response rating","woolly cupgrass; 62 g ai/ha, scale 0 to 100",35
same,"Plant response rating, Cupgrass, Woolly",woolly cupgrass; [9],35
same,"Plant response rating (0 to 100), Cupgrass, Woolly",woolly cupgrass; 250 g ai/ha,75
same,Kochia plant response rating,"kochia; 62 g ai/ha, scale 0 to 100",0
same,"Plant response rating, Kochia",kochia; [9],0
same,"Nutsedge, Yellow plant response rating","yellow nutsedge; 62 g ai/ha, scale 0 to 100",70
same,"Plant response rating, Nutsedge, Yellow",yellow nutsedge; [9],70
same,Pigweed plant response rating,"pigweed; 62 g ai/ha, scale 0 to 100",100
same,"Plant response rating, Pigweed",pigweed; [9],100
same,Soybean plant response rating,"soybean; 62 g ai/ha, scale 0 to 100",0
same,"Plant response rating, Soybean",soybean; [9],0
same,Sunflower plant response rating,"[1]; 62 g ai/ha, scale 0 to 100",0
same,"Plant response rating, Sunflower",[1]; [9],0
same,"Plant response rating, Sedge, Umbrella",umbrella sedge; [9],0
same,"Plant response rating, Sedge, Umbrella","umbrella sedge; 62 g ai/ha, scale 0 to 100, 0 no effect, 100 complete control, 13 to 15 days",85
same,"Plant response rating, Sedge, Umbrella","umbrella sedge; 125 g ai/ha, scale 0 to 100, 0 no effect, 100 complete control, 13 to 15 days",85
same,"Plant response rating, Sedge, Umbrella","umbrella sedge; 250 g ai/ha, scale 0 to 100, 0 no effect, 100 complete control, 13 to 15 days",90
